The values below come from ChEMBL document CHEMBL1139969, “Novel and potent 3-(2,3-dichlorophenyl)-4-(benzyl)-4H-1,2,4-triazole P2X7 antagonists” (Bioorg Med Chem Lett, 2007).

The target of series [1] is T1, P2X purinoceptor 7 (Homo sapiens, UniProt Q99572).
T1 sequence (Q99572 whole entry): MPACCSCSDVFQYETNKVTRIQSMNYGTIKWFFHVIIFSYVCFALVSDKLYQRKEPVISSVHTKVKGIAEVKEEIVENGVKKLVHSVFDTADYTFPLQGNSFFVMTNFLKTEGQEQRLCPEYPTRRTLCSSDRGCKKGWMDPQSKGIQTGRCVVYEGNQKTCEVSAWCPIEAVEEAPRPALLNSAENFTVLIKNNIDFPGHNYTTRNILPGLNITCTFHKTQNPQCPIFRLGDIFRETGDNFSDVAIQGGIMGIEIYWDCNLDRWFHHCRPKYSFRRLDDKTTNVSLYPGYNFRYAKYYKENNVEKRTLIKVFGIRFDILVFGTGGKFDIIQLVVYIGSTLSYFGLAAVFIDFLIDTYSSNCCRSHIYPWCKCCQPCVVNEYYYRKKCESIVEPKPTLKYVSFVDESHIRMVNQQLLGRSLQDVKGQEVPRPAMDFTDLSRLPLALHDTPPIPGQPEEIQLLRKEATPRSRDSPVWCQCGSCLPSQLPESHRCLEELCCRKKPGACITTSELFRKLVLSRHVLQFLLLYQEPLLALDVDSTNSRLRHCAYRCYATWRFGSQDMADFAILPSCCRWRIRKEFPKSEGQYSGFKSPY
The series is described as follows: Antagonist activity at human recombinant P2X7 receptor. In kind it is functional.

Series [2] has as its target Translocator protein (Homo sapiens) (UniProt P30536). The series is described as follows: Activity at peripheral benzodiazepine receptor at 10 uM.
Series [3] addresses P2Y purinoceptor 2 (Homo sapiens) (UniProt P41231). Put plainly: Activity at human P2Y2 receptor at 10 uM.
Series [4] in a line: Half life in ip dosed rat Chung model of neuropathic pain. It counts as ADME, organism-based. The note with it: in vivo.
Series [5] deals with P2Y purinoceptor 1 (Homo sapiens) (UniProt P47900). The series is described as follows: Activity at human P2Y1 receptor at 10 uM.
P2Y purinoceptor 1 (Homo sapiens), sequence (P47900 whole entry): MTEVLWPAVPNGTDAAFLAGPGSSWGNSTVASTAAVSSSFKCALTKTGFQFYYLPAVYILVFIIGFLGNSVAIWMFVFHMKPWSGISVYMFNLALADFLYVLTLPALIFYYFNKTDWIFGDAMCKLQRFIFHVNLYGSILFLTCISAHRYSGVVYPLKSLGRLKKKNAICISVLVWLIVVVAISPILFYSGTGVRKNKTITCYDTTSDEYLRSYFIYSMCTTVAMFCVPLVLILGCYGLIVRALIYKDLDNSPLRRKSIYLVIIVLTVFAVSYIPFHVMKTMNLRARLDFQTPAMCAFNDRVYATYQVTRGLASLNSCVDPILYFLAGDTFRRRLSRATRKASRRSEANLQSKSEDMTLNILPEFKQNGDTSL
The nature of series [6]: Volume of distribution at terminal phase in rat at 5 umol/kg, iv. It counts as ADME, organism-based. The note with it: in vivo.
Series [7] is described as follows: Oral bioavailability in rat at 5 umol/kg. In kind it is ADME, organism-based. The following applies: in vivo.
The nature of series [8]: Cmax in rat at 5 umol/kg, ip. In kind it is ADME, organism-based. Also on record: dose 5 umol/kg, route intraperitoneal. The following applies: in vivo.
Series [9] concerns the target T2, P2X purinoceptor 4 (Homo sapiens) (UniProt Q99571).
T2 sequence (whole entry): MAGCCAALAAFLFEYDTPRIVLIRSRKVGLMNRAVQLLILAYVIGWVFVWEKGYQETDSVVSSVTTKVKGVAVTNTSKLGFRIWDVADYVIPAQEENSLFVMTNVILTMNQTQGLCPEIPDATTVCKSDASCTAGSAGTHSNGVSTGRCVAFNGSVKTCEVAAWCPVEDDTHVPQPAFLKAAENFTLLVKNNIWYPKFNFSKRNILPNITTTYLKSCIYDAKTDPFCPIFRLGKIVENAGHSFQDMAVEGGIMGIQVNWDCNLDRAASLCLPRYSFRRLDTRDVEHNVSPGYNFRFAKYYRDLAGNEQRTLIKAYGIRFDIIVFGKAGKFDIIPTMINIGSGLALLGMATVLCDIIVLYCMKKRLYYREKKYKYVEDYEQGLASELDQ
The series is described as follows: Activity at human P2X4 receptor at 10 uM.

In series [10] the target is T3, P2X purinoceptor 1 (Homo sapiens) (UniProt P51575).
T3 sequence (whole entry): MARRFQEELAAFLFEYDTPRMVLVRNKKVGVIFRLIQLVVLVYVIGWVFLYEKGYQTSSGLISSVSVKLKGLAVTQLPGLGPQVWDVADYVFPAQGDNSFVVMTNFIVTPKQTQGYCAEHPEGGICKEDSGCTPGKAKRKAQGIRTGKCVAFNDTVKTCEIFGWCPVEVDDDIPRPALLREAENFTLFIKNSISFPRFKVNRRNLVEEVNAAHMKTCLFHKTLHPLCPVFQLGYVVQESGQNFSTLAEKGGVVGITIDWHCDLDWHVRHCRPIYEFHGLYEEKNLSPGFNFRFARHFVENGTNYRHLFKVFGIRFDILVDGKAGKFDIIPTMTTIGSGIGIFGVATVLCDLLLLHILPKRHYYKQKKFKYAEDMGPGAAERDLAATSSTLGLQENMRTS
Put plainly: Activity at human P2X1 receptor at 10 uM.

A short description of series [11]: Tmax in rat at 5 umol/kg, ip. The note with it: in vivo. It counts as ADME, organism-based.
Series [12] in a line: Clearance in rat at 5 umol/kg, iv. It counts as ADME, organism-based. The following applies: in vivo.
The species entered for series [13] is Homo sapiens. Put plainly: Activity at human P2X2/3 receptor at 10 uM.
Series [14] is described as follows: Bioavailability in ip dosed rat Chung model of neuropathic pain. In kind it is ADME, organism-based. The following applies: in vivo.
The target of series [15] is T4, P2X purinoceptor 2 (Homo sapiens) (UniProt Q9UBL9).
T4 sequence (whole entry): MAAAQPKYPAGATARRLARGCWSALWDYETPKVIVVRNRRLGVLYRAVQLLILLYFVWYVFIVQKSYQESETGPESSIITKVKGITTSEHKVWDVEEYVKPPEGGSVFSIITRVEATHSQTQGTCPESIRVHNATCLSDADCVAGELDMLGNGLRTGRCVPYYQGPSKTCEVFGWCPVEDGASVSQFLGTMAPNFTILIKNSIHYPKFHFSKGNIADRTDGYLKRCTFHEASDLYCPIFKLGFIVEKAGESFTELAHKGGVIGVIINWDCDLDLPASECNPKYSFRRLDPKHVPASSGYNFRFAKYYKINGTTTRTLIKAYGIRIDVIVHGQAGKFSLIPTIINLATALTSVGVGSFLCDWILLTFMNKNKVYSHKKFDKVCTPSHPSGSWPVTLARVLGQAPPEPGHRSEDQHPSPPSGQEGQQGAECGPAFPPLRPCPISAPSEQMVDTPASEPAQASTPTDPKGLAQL
The series is described as follows: Antagonist activity at human P2X2 receptor at 10 uM. In kind it is functional.

Series [16] is filed under the species Rattus norvegicus. The series is described as follows: Antinociceptive activity in rat Chung model of neuropathic pain assessed as reversal of allodynia after 30 mins. It counts as functional.
For series [17], the system named is THP-1. Put plainly: Inhibition of IL1-beta release from THP1 cells. The note with it: Homo sapiens. In kind it is functional, cell-based.
In series [18] the target is T5, P2X purinoceptor 7 (Rattus norvegicus, UniProt Q64663).
T5 sequence (Q64663 whole entry): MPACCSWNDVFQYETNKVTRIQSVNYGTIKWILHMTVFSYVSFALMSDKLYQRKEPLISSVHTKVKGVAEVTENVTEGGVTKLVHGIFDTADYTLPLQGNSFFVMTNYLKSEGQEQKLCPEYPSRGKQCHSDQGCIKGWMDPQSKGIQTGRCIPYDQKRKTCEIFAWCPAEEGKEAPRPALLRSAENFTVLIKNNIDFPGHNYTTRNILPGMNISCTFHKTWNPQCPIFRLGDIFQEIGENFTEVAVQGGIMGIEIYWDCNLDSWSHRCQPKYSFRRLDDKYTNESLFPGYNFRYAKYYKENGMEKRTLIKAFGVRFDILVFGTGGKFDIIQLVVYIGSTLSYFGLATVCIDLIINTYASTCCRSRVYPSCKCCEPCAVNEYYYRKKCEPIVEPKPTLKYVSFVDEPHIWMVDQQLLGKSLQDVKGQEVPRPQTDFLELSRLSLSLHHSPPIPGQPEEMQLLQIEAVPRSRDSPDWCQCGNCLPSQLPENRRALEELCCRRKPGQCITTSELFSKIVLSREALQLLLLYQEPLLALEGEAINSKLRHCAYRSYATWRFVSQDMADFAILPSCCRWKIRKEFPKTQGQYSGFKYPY
The series is described as follows: Antagonist activity at rat recombinant P2X7 receptor. It counts as functional.

In general, IC50 refers to the concentration needed to halve the response being measured. For orientation: half-life means how long it takes for the measured level to halve. High values mean slow loss, low ones fast loss. A word on the Vd: it is the apparent volume that relates the amount in the body to the concentration in plasma or blood. A lower Vd goes with confinement near the circulation. What is called bioavailability is the share of a dose that reaches the circulation, judged against a reference dose that is usually intravenous. What is called Cmax is the peak of the concentration-time curve. The Tmax is the time from dosing to the highest level. A word on the clearance: it is a measure of how efficiently the substance is removed, as volume per time. A lower clearance goes with a low capacity for elimination. In general, ED50 refers to the midpoint of the dose-response relation.

Structures are written as SMILES. Calls of active or inactive are those of the source. The rule behind the calls is not given here.

P2Y purinoceptor 2 (Homo sapiens), sequence (P41231 whole entry): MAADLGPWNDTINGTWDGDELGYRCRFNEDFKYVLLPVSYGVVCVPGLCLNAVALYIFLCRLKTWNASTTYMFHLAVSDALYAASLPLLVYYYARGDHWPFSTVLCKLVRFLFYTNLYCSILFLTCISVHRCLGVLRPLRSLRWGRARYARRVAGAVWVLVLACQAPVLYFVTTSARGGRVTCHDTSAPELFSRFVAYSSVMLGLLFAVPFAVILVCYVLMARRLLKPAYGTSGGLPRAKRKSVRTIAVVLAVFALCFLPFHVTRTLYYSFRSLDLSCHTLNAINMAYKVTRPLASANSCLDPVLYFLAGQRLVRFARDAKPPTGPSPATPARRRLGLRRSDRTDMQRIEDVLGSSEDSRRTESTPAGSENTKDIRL
Translocator protein (Homo sapiens), sequence (P30536 whole entry): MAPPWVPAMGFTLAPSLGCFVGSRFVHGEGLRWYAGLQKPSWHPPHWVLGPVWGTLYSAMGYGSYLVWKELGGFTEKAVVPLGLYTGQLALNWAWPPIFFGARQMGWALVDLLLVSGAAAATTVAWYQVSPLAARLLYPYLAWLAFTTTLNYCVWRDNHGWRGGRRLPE

For the compound `COc1ccccc1Cn1cnnc1-c1cccc(Cl)c1Cl`, the IC50 in [1] was 191 nM.

As for `CC(c1ccccc1)n1cnnc1-c1cccc(Cl)c1Cl` (stereo not given), in [1], the half-maximal inhibitory concentration (IC50) is 1050 nM.

Take `Clc1ccc(Cn2cnnc2-c2cccc(Cl)c2Cl)c(Cl)c1`: the IC50 in series [1] was 331 nM.

`CS(=O)(=O)c1ccccc1Cn1cnnc1-c1cccc(C(F)(F)F)c1Cl`: the IC50 in series [1] was 145 nM.

`Cc1ccccc1Cn1cnnc1-c1cccc(Cl)c1Cl`: the Activity in [2] came to 86%. Also, the outcome in series [3], in series [5], in [9], in series [10], in [13] and in series [15] was inactive. For the same compound, in series [4], the half-life is 1.7 h. Besides, the IC50 is 77.6 nM in series [1], 372 nM in series [17] and 209 nM in [18]. For the same compound, the distribution volume (Vd) in series [6] amounted to 1.9 L/kg. The figures for the bioavailability in [7] and in series [14] were 15% and 62%, respectively. Moreover, the Cmax in series [8] was 210 ng/mL. In [11], the Tmax was determined as 0.33 h. Moreover, the clearance in series [12] was 51.7 mL/min/kg. Further, the Efficacy in series [16] is on record as 68%. In addition, the 50% effective dose (ED50) in series [16] (Rattus norvegicus, 0.5 h) is 125 µmol/kg.

As to `Clc1cccc(-c2ncnn2Cc2ccccc2)c1Cl`, in [1], the IC50 is 302 nM.

Regarding `Clc1cccc(-n2nncc2Cc2ccccc2)c1Cl`, the IC50 in series [1] is 427 nM.

For `Cc1ccc(F)cc1Cn1cnnc1-c1cccc(Cl)c1Cl`, the concentration for half-maximal inhibition (IC50) in series [1] was 47.9 nM; in [17] it was 240 nM; in series [18], 550 nM.

Take `Clc1cccc(-c2nncn2[C@H]2CCc3ccccc32)c1Cl`: the IC50 in series [1] is 50.1 nM.

Consider `CSc1ccccc1Cn1cnnc1-c1cccc(Cl)c1Cl`, for which, in series [1], the half-maximal inhibitory concentration (IC50) was 49 nM.

In the case of `FC(F)c1ccccc1Cn1cnnc1-c1cccc(Cl)c1Cl`, the IC50 in series [1] is 117 nM.

In the case of `Clc1cccc(-n2ncnc2Cc2ccccc2)c1Cl`, the IC50 in series [1] was 209 nM.

Consider `Clc1cccc(-c2cnnn2Cc2ccccc2)c1Cl`, for which the IC50 in [1] is 603 nM.

As to `Clc1ccc(Cl)c(Cn2cnnc2-c2cccc(Cl)c2Cl)c1`, in series [1], the IC50 was 138 nM.

For the compound `Clc1cccc(-c2cncn2Cc2ccccc2)c1Cl`, the concentration for half-maximal inhibition (IC50) in series [1] is 1820 nM.

`Clc1cccc(-c2nncn2Cc2ccccc2)c1Cl`: the IC50 in series [1] was 525 nM.

In the case of `CC(C)(c1ccccc1)n1cnnc1-c1cccc(Cl)c1Cl`, the IC50 in series [1] was 13200 nM.

Take `O=C(NCC12CC3CC(CC(C3)C1)C2)c1cccc(Cl)c1Cl`: the IC50 was 64.6 nM in [1] and 813 nM in [18].

As for `Clc1cccc(-c2nncn2[C@@H]2CCc3ccccc32)c1Cl`, the 50% inhibitory concentration (IC50) is 19.1 nM in series [1], 75.9 nM in [17] and 77.6 nM in [18].

For `COc1cccc(Cn2cnnc2-c2cccc(Cl)c2Cl)c1`, the IC50 in [1] is 214 nM.

Take `Fc1ccc(C(F)(F)F)cc1Cn1cnnc1-c1cccc(Cl)c1Cl`: the IC50 in series [1] is 912 nM.

Consider `FC(F)(F)c1ccc(Cn2cnnc2-c2cccc(Cl)c2Cl)cc1`, for which the IC50 in [1] was 8910 nM.

Consider `Clc1cccc(-c2ccnn2Cc2ccccc2)c1Cl`, for which the IC50 in series [1] is 6030 nM.

For the compound `CSc1ccccc1Cn1cnnc1-c1cccc(C(F)(F)F)c1Cl`, in [1], the concentration for half-maximal inhibition (IC50) was 26.9 nM.

As to `COc1cccc(Cn2cnnc2-c2cccc(Cl)c2Cl)c1OC`, the IC50 in series [1] is 132 nM.

Regarding `FC(F)(F)c1cccc(Cn2cnnc2-c2cccc(Cl)c2Cl)c1`, in [1], the IC50 was 1290 nM.

On to `Fc1ccc(C(F)(F)F)c(Cn2cnnc2-c2cccc(Cl)c2Cl)c1`, for which the IC50 in series [1] was 49 nM.

As to `FC(F)(F)c1ccccc1Cn1cnnc1-c1cccc(Cl)c1Cl`, the IC50 in series [1] was 132 nM.

For the compound `Clc1cccc(Cn2cnnc2-c2cccc(Cl)c2Cl)c1Cl`, in [1], the IC50 was 191 nM.

In the case of `Clc1cccc(-c2nncn2Cc2cccc3ccccc23)c1Cl`, the 50% inhibitory concentration (IC50) in series [1] was 58.9 nM.

Turning to `Clc1cccc(-c2nnnn2Cc2ccccc2)c1Cl`, the IC50 was 2510 nM in series [17] and 75.9 nM in series [18].
